Results published in the supplement of paper PMC10307832.

Tests used:
Assay in all cases: relative viability (nuclei count vs DMSO), 5 days (fraction); higher = more cells survive
FG-4592 + Linsitinib = compound: Cc1nc(C(=O)NCC(=O)O)c(O)c2ccc(Oc3ccccc3)cc12 [FG-4592] + C[C@]1(O)C[C@@H](c2nc(-c3ccc4ccc(-c5ccccc5)nc4c3)c3c(N)nccn32)C1 [Linsitinib] (partner 1 µM)
Outline: (§1)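 Relative viability divides the nuclei count in treated wells by that in vehicle wells. Lung cancer cell lines were seeded in 1536-well plates, dosed by pin tool the next day, and fixed and stained after 5 days in one step with final 0.05% Triton X-100, 1% formaldehyde and 1 ug/ml Hoechst. Dosing was a single drug or a fixed anchor-drug dose plus five library-drug doses (not always all listed) in √10 steps, and values are medians of duplicate plates imaged at 4×.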

IU1-47 + Luminespib = compound: CC1=CC(=C(N1C2=CC=C(C=C2)Cl)C)C(=O)CN3CCCCC3 [IU1-47] + CCNC(=O)c1noc(-c2cc(C(C)C)c(O)cc2O)c1-c1ccc(CN2CCOCC2)cc1 [Luminespib] (partner 0.01 µM)
Outline: as §1

IU1-47 + Phenformin = compound: CC1=CC(=C(N1C2=CC=C(C=C2)Cl)C)C(=O)CN3CCCCC3 [IU1-47] + N=C(N)NC(=N)NCCc1ccccc1 [Phenformin] (partner 250 µM)
Outline: as §1

IU1-47 + Decitabine = compound: CC1=CC(=C(N1C2=CC=C(C=C2)Cl)C)C(=O)CN3CCCCC3 [IU1-47] + Nc1ncn([C@H]2C[C@H](O)[C@@H](CO)O2)c(=O)n1 [Decitabine] (partner 2 µM)
Outline: as §1

Cell Line	relative viability (FG-4592 + Linsitinib; first compound 0.08 µM)	relative viability (FG-4592 + Linsitinib; first compound 0.253 µM)	relative viability (FG-4592 + Linsitinib; first compound 0.8 µM)	relative viability (FG-4592 + Linsitinib; first compound 2.53 µM)	relative viability (FG-4592 + Linsitinib; first compound 8 µM)	relative viability (IU1-47 + Luminespib; first compound 0.08 µM)	relative viability (IU1-47 + Luminespib; first compound 0.253 µM)	relative viability (IU1-47 + Luminespib; first compound 0.8 µM)	relative viability (IU1-47 + Luminespib; first compound 2.53 µM)	relative viability (IU1-47 + Luminespib; first compound 8 µM)	relative viability (IU1-47 + Phenformin; first compound 0.08 µM)	relative viability (IU1-47 + Phenformin; first compound 0.253 µM)	relative viability (IU1-47 + Phenformin; first compound 0.8 µM)	relative viability (IU1-47 + Phenformin; first compound 2.53 µM)	relative viability (IU1-47 + Phenformin; first compound 8 µM)	relative viability (IU1-47 + Decitabine; first compound 0.08 µM)	relative viability (IU1-47 + Decitabine; first compound 0.253 µM)	relative viability (IU1-47 + Decitabine; first compound 0.8 µM)	relative viability (IU1-47 + Decitabine; first compound 2.53 µM)	relative viability (IU1-47 + Decitabine; first compound 8 µM)
NCI-H1299	0.979	0.939	0.956	0.989	0.964	–	–	–	–	–	–	–	–	–	–	–	–	–	–	–
NCI-H1650	–	–	–	–	–	0.169	0.201	0.18	0.175	0.221	0.412	0.367	0.419	0.366	0.326	0.474	0.593	0.391	0.366	0.445
ChaGo-K-1	–	–	–	–	–	0.623	0.618	0.713	0.671	0.703	0.464	0.545	0.428	0.579	0.451	0.531	0.529	0.542	0.536	0.533
NCI-H2228	0.586	0.628	0.795	0.612	0.727	0.154	0.122	0.162	0.144	0.132	0.413	0.434	0.315	0.32	0.262	–	–	–	–	–
NCI-H1648	–	–	–	–	–	–	–	–	–	–	–	–	–	–	–	0.546	0.496	0.664	0.387	0.444
NCI-H1563	1.27	1.24	1.19	1.27	1.22	0.468	0.52	0.538	0.506	0.497	0.657	0.691	0.629	0.709	0.584	–	–	–	–	–
A549	0.476	0.549	–	0.546	0.588	–	–	–	–	–	0.165	0.105	0.144	–	0.0832	0.284	0.321	0.335	0.253	0.221
NCI-H522	–	–	–	–	–	1.32	1.27	1.35	0.864	1.23	0.577	0.595	0.708	0.585	0.647	0.67	0.64	0.739	0.763	0.634
NCI-H2170	–	–	–	–	–	0.706	1.13	0.759	0.66	0.994	0.48	0.435	0.389	0.414	0.403	0.516	0.529	0.498	0.482	0.555
NCI-H1623	–	–	–	–	–	0.602	0.611	0.519	0.456	0.661	0.634	0.61	0.642	0.576	0.551	–	–	–	–	–
SW 900	–	–	–	–	–	0.191	0.172	0.181	0.176	0.194	0.628	0.539	0.444	0.532	0.661	0.414	–	0.447	0.452	0.353
IA-LM	0.578	0.597	0.565	0.376	0.476	–	–	–	–	–	–	–	–	–	–	–	–	–	–	–
CAL-12T	0.709	0.798	0.836	0.775	0.716	0.878	0.291	0.363	0.438	0.495	0.525	0.576	0.613	0.472	0.554	–	–	–	–	–
EBC-1	0.88	0.905	0.824	0.862	0.825	–	–	–	–	–	–	–	–	–	–	–	–	–	–	–
